Assays:
JNK = JNK Activation Assay in PANC-1; assay type: cell-based, human; set-up: key: Y = yes; N = No; conditions: at 10 μM
Description: Cell lines: Human tumor-derived pancreatic cancer cell line Panc-1 and mouse muscle myoblast C2C12 were purchased from American Type Culture Collection and grown in complete DMEM-High Glucose, supplemented with penicillin (100 U/mL), streptomycin (100 μg/mL), and 10% heat-inactivated FBS at 37° C. in a humidified incubator with 5% CO2.
Method: Cells were plated at 350000 cells/well density in a 12-well plate, allowed 3 hours to adhere to the plate, then starved in the appropriate medium in the presence of 0.5% FBS overnight. The small molecules to be tested were added to the cells in the final concentration of 10 μM in the presence of 0.3% DMSO for 3 hours incubation at 37° C. For IC50 value determination, serial dilutions of compounds were added to cells under the same conditions. […] Protein concentration was assessed by BCA protein assay (Thermo Scientific). Phosphorylation level of JNK was determined by western blot.
Western blot protocol: Equal amounts of protein (15-50 μg) were separated by SDS-PAGE and transferred to nitrocellulose membranes (Invitrogen by Thermo Fisher Scientific). […] Membranes were blocked with 10% milk and phosphorylation levels of Smad2, Smad3, JNK and p38 were assessed by incubating overnight at 4° C. with the following antibody: Phospho-SAPK/JNK (Thr183/Tyr185), from Cell Signaling Technology. […]

KRas G12D mutant = test: Ras GTP Binding Domain Inhibition Assay, KRas G12D mutant; conditions: at 20 μM; for KRas G12D mutant + SOS: % inh.: with SOS; for KRas G12D mutant: % inh.: without SOS
Outline: (§1)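 Ni-plate-captured His-tagged GTPase (10-30 μg/mL, o/n 4° C); cpd 20 μM or serial dilution (IC50), 1% DMSO, 3 h RT; optional Sos 556-1049 His-tag (10-30 μg/mL) last hour. Cy3- or Cy5-GTP 100 nM, 45 min RT, 3× wash, fluorescence read.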

Rho-A = test: Ras GTP Binding Domain Inhibition Assay, Rho-A; conditions: at 20 μM
Outline: as §1

- KRas G12D mutant + SOS: % inh. (KRas G12D mutant; Table 7): C (C = 46-75% inhibition)
- KRas G12D mutant + SOS: % inh. (KRas G12D mutant; Table 8): C (C = 46-75% inhibition)
- KRas G12D mutant: % inh. (KRas G12D mutant; Table 7): A (A = 1-25% inhibition)
- KRas G12D mutant: % inh. (KRas G12D mutant; Table 8): A (A = 1-25% inhibition)
- Rho-A + SOS: % inh. (Rho-A; with SOS): D (D = 76-100% inhibition)
- Rho-A: % inh. (Rho-A; without SOS): C (C = 46-75% inhibition)
SMILES: CO[C@H]1CC[C@@H](Nc2nc(-c3nccn3C)nc3sc(-c4ccn(C)n4)c(-c4ccccc4)c23)C1 (racemic) [Compound 5, rac-N-((1R,3S)-3-Methoxycyclopentyl)-2-(1-methyl-1H-imidazol-2-yl)-6-(1-methyl-1H-pyrazol-3-yl)-5-phenylthieno[2,3-d]pyrimidin-4-amine]
- Activation of JNK in PANC-1 (JNK): Y

From patent publication US20240309015A1, “Methods for the Treatment of Fibrotic Disease” (SHY Therapeutics, LLC, priority 2021, published 2024)
